Read-outs that look alike come from different tables or passages of the source.

Assay [1] has as its target T1, CCK2R (Homo sapiens, UniProt P32239).
T1 sequence (P32239 1-447): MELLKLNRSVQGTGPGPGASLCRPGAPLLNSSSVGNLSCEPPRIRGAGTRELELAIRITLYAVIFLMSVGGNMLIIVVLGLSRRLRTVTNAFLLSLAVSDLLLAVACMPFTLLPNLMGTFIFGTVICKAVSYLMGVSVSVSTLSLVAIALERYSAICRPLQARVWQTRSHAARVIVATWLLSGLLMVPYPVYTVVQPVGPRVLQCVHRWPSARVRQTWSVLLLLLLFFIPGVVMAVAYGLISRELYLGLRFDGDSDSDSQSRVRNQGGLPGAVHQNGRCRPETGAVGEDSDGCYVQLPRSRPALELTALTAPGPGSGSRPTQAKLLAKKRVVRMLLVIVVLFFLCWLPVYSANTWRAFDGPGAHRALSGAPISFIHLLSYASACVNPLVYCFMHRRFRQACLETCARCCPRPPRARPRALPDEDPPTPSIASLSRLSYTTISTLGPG
The conditions noted are these: cited from earlier work.

For assay [2], the target named is T2, CCK1R (Homo sapiens, UniProt P32238).
T2 sequence (P32238 1-428): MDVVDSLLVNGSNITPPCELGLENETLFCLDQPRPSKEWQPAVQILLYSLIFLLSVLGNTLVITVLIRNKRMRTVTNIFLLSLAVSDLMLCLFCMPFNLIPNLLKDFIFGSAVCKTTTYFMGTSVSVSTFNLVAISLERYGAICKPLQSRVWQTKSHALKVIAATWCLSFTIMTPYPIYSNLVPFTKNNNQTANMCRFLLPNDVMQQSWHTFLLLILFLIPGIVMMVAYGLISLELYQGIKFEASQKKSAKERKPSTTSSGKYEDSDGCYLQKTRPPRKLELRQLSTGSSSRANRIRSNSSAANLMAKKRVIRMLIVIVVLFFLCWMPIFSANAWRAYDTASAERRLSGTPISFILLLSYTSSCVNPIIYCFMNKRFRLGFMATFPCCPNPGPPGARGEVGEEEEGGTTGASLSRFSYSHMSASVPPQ
The conditions noted are these: cited from earlier work.

Assay [3] has as its system subcutaneous PANC-1 tumor. The conditions noted are these: oral Z-360 along with gemcitabine, cited from earlier work.
The target in assay [4] is T1, CCK2R. Briefly: In vitro binding of CCK2R-NIR compounds to HEK-CCK2R cells (cell bound fluorescence). Also on record: expressed in transfected cells; host or cells: HEK (human embryonic kidney) cells, HEK-CCK2R, gift from Dr. Mark Hellmich (UTMB). Conditions: for Kd: CCK2R-positive HEK-CCK2R cancer cells, 1 h at 37° C., read-out: KD; for affinity for CCK2R (in words): in vitro binding affinity data. As for the experimental part:
FIG. 4 depicts the binding affinities of CCK2R-NIR compounds 21, 42-44 to CCK2R. CCK2R-positive HEK-CCK2R cancer cells were incubated for 1 h at 37° C. with increasing concentrations of compounds. Media was then removed, washed with fresh media three times, and replaced with PBS. Cell bound fluorescence was assayed as using fluorometer.
CCK2R-positive HEK-CCK2R cancer cells were incubated for 1 h at 37° C. with increasing concentrations of compounds. Media was then removed, washed with fresh media three times, and replaced with PBS. Cell bound fluorescence was assayed as using fluorometer.
FIG. 13 illustrates the binding affinity of […] to CCK2R. CCK2R-positive HEK-CCK2R cancer cells were incubated for 1 h at 37° C. with increasing concentrations of compound 21. Media was then removed, washed with fresh media three times, and replaced with PBS. Cell bound fluorescence was assayed as using fluorometer.
HEK-CCK2 cells (a human embryonic kidney cells transfected with CCK2 receptor) were a kind gift from Dr. Mark Hellmich (University of Texas Medical Branch, Galveston, Tex.) and grown as a monolayer using Dulbecco's Modified Eagles Medium (GIBCO) (Gibco, NY) 10% heat-inactivated fetal bovine serum (Atlanta Biological, GA) and 1% penicillin streptomycin (Gibco, NY) in a 5% carbon dioxide: 95% air-humidified atmosphere at 37° C. for at least six passages before they were used for the assays.
HEK cells that overexpress CCK2 were seeded into a T75 flask and allowed to form a monolayer over 48 h. After trypsin digestion, release cells were transferred into centrifuge tubes (1×10^6 cells/tube) and centrifuged. The medium was replaced with fresh medium containing increasing concentration of requisite CCK2R-Ligand-NIR dye compound in the presence or absence of 100-fold excess the ligand, a high affinity CCK2 receptor antagonist, and incubated for 1 h at 37° C. After rinsing with fresh medium (2×1.0 mL) and PBS (1×1.0 mL), cells were resuspended in PBS (1.0 mL) and cell bound fluorescence was analyzed (100,000 cells/sample) using a fluorometer (Cary, Agilent). The relative binding affinities were calculated using a plot of % cell bound fluorescence versus the log concentration of the test article using GraphPad Prism 4.

`CC(C)(C)C(=O)CN1C(=O)[C@H](NC(=O)Nc2cccc(C(=O)O)c2)CN(C2CCCCC2)c2ccccc21` [Compound Z-360]: the Ki in assay [1] is 0.47 nM. Moreover, the “selectivity ratio over CCK1R” value in assay [2] is 672. Moreover, in assay [3] (compared with either agent alone), the “inhibition of subcutaneous PANC-1 tumor growth” value is listed as 27.1%. Moreover, the “survival compared with the vehicle” value in assay [3] is reported as “significantly increased survival”. In the case of `CC(C)(C)C(=O)CN1C(=O)[C@H](NC(=O)Nc2cccc(C(=O)NCCCC(=O)N[C@@H](Cc3ccc(OC4=C(/C=C/C5=[N+](CCCCS(=O)(=O)[O-])c6ccc(S(=O)(=O)O)cc6C5(C)C)CCC/C4=C\C=C4\N(CCCCS(=O)(=O)O)c5ccc(S(=O)(=O)O)cc5C4(C)C)cc3)C(=O)O)c2)CN(C2CCCCC2)c2ccccc21` [Compound 48], in assay [4] (HEK-CCK2R cells), the “affinity for CCK2R compared to compound 21” value is reported as “less affinity” and the “affinity for CCK2R (in words)” value was “very high affinity”. Further, in assay [4] (Table 2), the Kd was 0.9 nM. Take `CC(C)(C)C(=O)CN1C(=O)[C@@H](NC(=O)Nc2cccc(C(=O)N[C@H](CCC(=O)N[C@@H](Cc3ccc(OC4=C(/C=C/C5=[N+](CCCCS(=O)(=O)[O-])c6ccc(S(=O)(=O)O)cc6C5(C)C)CCC/C4=C\C=C4\N(CCCCS(=O)(=O)O)c5ccc(S(=O)(=O)O)cc5C4(C)C)cc3)C(=O)O)C(=O)O)c2)CN(C2CCCCC2)c2ccccc21` [Compound 47]: in assay [4] (Table 2), the Kd is 14.7 nM. Further, in assay [4] (HEK-CCK2R cells), the “affinity for CCK2R (in words)” value is on record as “relatively weak affinity”. For `CC(C)(C)C(=O)CN1C(=O)[C@H](NC(=O)Nc2cccc(C(=O)NCCCC(=O)N[C@H](Cc3ccc(OC4=C(/C=C/C5=[N+](CCCCS(=O)(=O)[O-])c6ccc(S(=O)(=O)O)cc6C5(C)C)CCC/C4=C\C=C4\N(CCCCS(=O)(=O)O)c5ccc(S(=O)(=O)O)cc5C4(C)C)cc3)C(=O)O)c2)CN(C2CCCCC2)c2ccccc21` [Compound 49], the Kd in assay [4] (Table 2) amounted to 13.9 nM. As for `CC(C)(C)C(=O)CN1C(=O)[C@@H](NC(=O)Nc2cccc(C(=O)N[C@H](CCC(=O)O)C(=O)N[C@H](Cc3ccc(OC4=C(/C=C/C5=[N+](CCCCS(=O)(=O)[O-])c6ccc(S(=O)(=O)O)cc6C5(C)C)CCC/C4=C\C=C4\N(CCCCS(=O)(=O)O)c5ccc(S(=O)(=O)O)cc5C4(C)C)cc3)C(=O)O)c2)CN(C2CCCCC2)c2ccccc21` [Compound 43], the “affinity for CCK2R (in words)” value in assay [4] (HEK-CCK2R cells) was “very high affinity”. In the case of `CC(C)(C)C(=O)CN1C(=O)[C@H](NC(=O)Nc2cccc(C(=O)N[C@@H](CCC(=O)N[C@@H](Cc3ccc(OC4=C(/C=C/C5=[N+](CCCCS(=O)(=O)[O-])c6ccc(S(=O)(=O)O)cc6C5(C)C)CCC/C4=C\C=C4\N(CCCCS(=O)(=O)O)c5ccc(S(=O)(=O)O)cc5C4(C)C)cc3)C(=O)O)C(=O)O)c2)CN(C2CCCCC2)c2ccccc21` [Compound 45], the Kd in assay [4] (Table 2) was 2.3 nM. For `CC(C)(C)C(=O)CN1C(=O)[C@H](NC(=O)Nc2cccc(C(=O)N[C@H](CCC(=O)N[C@@H](CCCNC(=N)N)C(=O)N[C@@H](Cc3ccc(OC4=C(/C=C/C5=[N+](CCCCS(=O)(=O)[O-])c6ccc(S(=O)(=O)O)cc6C5(C)C)CCC/C4=C\C=C4\N(CCCCS(=O)(=O)O)c5ccc(S(=O)(=O)O)cc5C4(C)C)cc3)C(=O)O)C(=O)O)c2)CN(C2CCCCC2)c2ccccc21` [Compound 42], the Kd in assay [4] (Table 1) stood at 1.74 nM. In addition, in assay [4] (HEK-CCK2R cells), the “affinity for CCK2R (in words)” value is “relatively weaker affinity”.

With `CC(C)(C)C(=O)CN1C(=O)[C@@H](NC(=O)Nc2cccc(C(=O)N[C@@H](CCC(=O)N[C@H](CCCNC(=N)N)C(=O)N[C@H](CC(=O)O)C(=O)N[C@H](Cc3ccc(OC4=C(/C=C/C5=[N+](CCCCS(=O)(=O)[O-])c6ccc(S(=O)(=O)O)cc6C5(C)C)CCC/C4=C\C=C4\N(CCCCS(=O)(=O)O)c5ccc(S(=O)(=O)O)cc5C4(C)C)cc3)C(=O)O)C(=O)O)c2)CN(C2CCCCC2)c2ccccc21` [Compound 44], the “affinity for CCK2R (in words)” value in assay [4] (HEK-CCK2R cells) is reported as “relatively weaker affinity”.

The record behind these values is patent US10786580B2, “Cholecystokinin 2 receptor targeted NIR imaging and use thereof” (On Target Laboratories, LLC, priority 2016, dated 2020).
